Assay results: ChEMBL document CHEMBL3414493, “Design, synthesis and anticholinesterase activity of novel benzylidenechroman-4-ones bearing cyclic amine side chain” (Eur J Med Chem, 2015)

Assays:
Acetylcholinesterase [1] = biological target: T1, Acetylcholinesterase (Electrophorus electricus, UniProt O42275)
Description: Inhibition of electric eel AChE pre-incubated for 3 mins before acetylthiocholine substrate addition by Ellman's reagent based spectrophotometry

Cholinesterase = Cholinesterase (Equus caballus, UniProt P81908)
Description: Inhibition of equine serum BuChE pre-incubated for 3 mins before butyrylthiocholine substrate addition by Ellman's reagent based spectrophotometry

Acetylcholinesterase [2] = biological target: T1, Acetylcholinesterase; remark: listed apart in the source
Description: Inhibition of electric eel AChE pre-incubated for 3 mins before acetylthiocholine substrate addition by Lineweaver-Burk plot

Cholinesterase, sequence (P81908 whole entry): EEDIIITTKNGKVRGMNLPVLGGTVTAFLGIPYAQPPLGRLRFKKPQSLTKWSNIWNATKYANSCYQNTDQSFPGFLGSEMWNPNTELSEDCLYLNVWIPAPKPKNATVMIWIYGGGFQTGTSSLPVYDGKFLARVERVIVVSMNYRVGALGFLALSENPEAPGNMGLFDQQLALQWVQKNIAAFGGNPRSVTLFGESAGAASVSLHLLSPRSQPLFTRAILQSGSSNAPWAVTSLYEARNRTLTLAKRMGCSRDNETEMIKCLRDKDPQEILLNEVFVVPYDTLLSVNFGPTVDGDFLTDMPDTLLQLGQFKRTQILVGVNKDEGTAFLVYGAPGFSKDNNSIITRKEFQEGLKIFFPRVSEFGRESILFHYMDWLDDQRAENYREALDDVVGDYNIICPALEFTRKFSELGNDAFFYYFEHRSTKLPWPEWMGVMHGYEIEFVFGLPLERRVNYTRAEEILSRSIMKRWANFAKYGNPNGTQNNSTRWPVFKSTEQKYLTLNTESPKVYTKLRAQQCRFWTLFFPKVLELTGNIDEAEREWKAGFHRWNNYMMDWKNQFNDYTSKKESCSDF
T1 sequence (O42275 whole entry): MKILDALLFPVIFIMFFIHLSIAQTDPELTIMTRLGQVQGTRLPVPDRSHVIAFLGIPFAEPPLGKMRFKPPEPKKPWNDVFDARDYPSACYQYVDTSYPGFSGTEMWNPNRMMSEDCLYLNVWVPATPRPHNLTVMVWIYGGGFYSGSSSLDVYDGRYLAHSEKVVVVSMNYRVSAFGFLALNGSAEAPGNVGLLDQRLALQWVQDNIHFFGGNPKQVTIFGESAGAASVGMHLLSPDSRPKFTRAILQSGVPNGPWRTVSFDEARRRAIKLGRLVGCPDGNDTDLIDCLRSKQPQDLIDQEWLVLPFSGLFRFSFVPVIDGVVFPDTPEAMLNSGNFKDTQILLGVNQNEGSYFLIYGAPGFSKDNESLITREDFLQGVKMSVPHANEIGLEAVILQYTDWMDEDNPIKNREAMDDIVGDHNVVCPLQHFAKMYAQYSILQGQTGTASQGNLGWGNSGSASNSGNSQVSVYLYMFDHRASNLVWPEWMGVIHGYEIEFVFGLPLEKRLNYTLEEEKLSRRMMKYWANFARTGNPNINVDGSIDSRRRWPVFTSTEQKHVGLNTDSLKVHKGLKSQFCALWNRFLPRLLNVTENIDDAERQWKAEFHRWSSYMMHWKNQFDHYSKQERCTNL

| Structure (SMILES) | IC50 (Acetylcholinesterase [1]) | IC50 (Cholinesterase) | Ki (Acetylcholinesterase [2]) |
| --- | --- | --- | --- |
| O=C1/C(=C/c2ccc(OCCCN3CCOCC3)cc2)COc2cc(O)ccc21 | 158000 nM | – | – |
| O=C1/C(=C/c2ccc(OCCCN3CCCCC3)cc2)COc2cc(O)ccc21 | 2380 nM | 27.4 µM | – |
| O=C1/C(=C/c2ccc(OCCN3CCOCC3)cc2)COc2cc(O)ccc21 | 8160 nM | 96 µM | – |
| O=C1/C(=C/c2ccc(OCCN3CCCCC3)cc2)COc2cc(O)ccc21 | 192 nM | 2.16 µM | – |
| COc1ccc2c(c1)OC/C(=C\c1ccc(OCCCN3CCCCC3)cc1)C2=O | 3290 nM | 26.3 µM | – |
| COc1ccc2c(c1)OC/C(=C\c1ccc(OCCN3CCCCC3)cc1)C2=O | 173 nM | 8.2 µM | – |
| COc1ccc2c(c1)OC/C(=C\c1ccc(OCCN3CCOCC3)cc1)C2=O | 1900 nM | 11.6 µM | – |
| COc1ccc2c(c1)OC/C(=C\c1ccc(OCCCN3CCOCC3)cc1)C2=O | 13900 nM | 101 µM | – |
| COc1ccc2c(c1)OC/C(=C\c1ccc(OCCCN3CCCC3)cc1)C2=O | 1100 nM | 6.85 µM | – |
| CCOc1ccc2c(c1)OC/C(=C\c1ccc(OCCN3CCCCC3)cc1)C2=O | 122 nM | 0.854 µM | 270 nM |
| CCOc1ccc2c(c1)OC/C(=C\c1ccc(OCCCN3CCOCC3)cc1)C2=O | 6840 nM | 28.7 µM | – |
| CCOc1ccc2c(c1)OC/C(=C\c1ccc(OCCN3CCOCC3)cc1)C2=O | 1000 nM | 10.2 µM | – |
| CCOc1ccc2c(c1)OC/C(=C\c1ccc(OCCCN3CCCCC3)cc1)C2=O | 562 nM | 3.1 µM | – |
| O=C1/C(=C/c2ccc(OCCN3CCOCC3)cc2)COc2cc(OCc3ccccc3)ccc21 | 6440 nM | 83.7 µM | – |
| O=C1/C(=C/c2ccc(OCCCN3CCOCC3)cc2)COc2cc(OCc3ccccc3)ccc21 | 50000 nM | – | – |
| O=C1/C(=C/c2ccc(OCCN3CCCCC3)cc2)COc2cc(OCc3ccccc3)ccc21 | 207 nM | 2.58 µM | – |
| O=C1/C(=C/c2ccc(OCCCN3CCCC3)cc2)COc2cc(OCc3ccccc3)ccc21 | 3500 nM | 49 µM | – |
| O=C1/C(=C/c2ccc(OCCCN3CCCCC3)cc2)COc2cc(OCc3ccccc3)ccc21 | 2700 nM | 32.4 µM | – |
